Reference: patent US20140315838A1, “Methods of Treating Recurring Bacterial Infection” (Optimer Pharmaceuticals, Inc., priority 2010, published 2014)

Tested on: Clostridium difficile
Experiment: Phase 3 randomized, double-blind clinical trials of 10-day treatment of C. difficile infection: recurrence rate
Type: in vivo, human
Settings: 10-day oral treatment (fidaxomicin 200 mg bid, vancomycin 125 mg qid), relapse out to 4 weeks after end of treatment
Method: Subjects with mild to moderate C. difficile, males and females aged […] with >3 diarrheal (liquid or unformed) stools/day and with a positive enzyme immunoassay for C. difficile toxin or cell cytotoxicity assay and no more than 24 hours of prior treatment for C. difficile were eligible for enrollment. Only subjects with a primary episode or first relapse of disease were eligible. […] Subjects with ileus, WBC >30×10^9/L, toxic megacolon, or concern about life-threatening CDI were excluded from study entry. Subjects with severe underlying disease who were not expected to survive for 72 hours regardless of cause, who had had more than a single occurrence within 3 months, or who had Crohn's disease or ulcerative colitis were also excluded. […] They were evaluated for clinical cure at end of therapy and relapse out to 4 weeks following the end of treatment.

[1] = Stratum: Single Prior Episode of CDI (recurring CDI)

Compound | Recurrence Rate (Stratum: No Prior Episode of CDI) | Recurrence Rate [1] | Recurrence Rate (Stratum: Single Prior Episode of CDI (recurring CDI), listed as fidaxomicin) [%] | Recurrence Rate (Stratum: Single Prior Episode of CDI (recurring CDI), listed as vancomycin) [%]
CCc1c(Cl)c(O)c(Cl)c(O)c1C(=O)O[C@H]1[C@H](O)[C@H](OC)[C@H](OC/C2=C\C=C\C[C@H](O)/C(C)=C/[C@H](CC)[C@@H](O[C@@H]3OC(C)(C)[C@@H](OC(=O)C(C)C)[C@H](O)[C@@H]3O)/C(C)=C/C(C)=C/C[C@@H]([C@@H](C)O)OC2=O)O[C@@H]1C [Fidaxomicin] | 38/325 (11.6%) | 13/66 (19.6%) | 19.6 | –
CN[C@H](CC(C)C)C(=O)N[C@H]1C(=O)N[C@@H](CC(N)=O)C(=O)N[C@H]2C(=O)N[C@H]3C(=O)N[C@H](C(=O)N[C@H](C(=O)O)c4cc(O)cc(O)c4-c4cc3ccc4O)[C@H](O)c3ccc(c(Cl)c3)Oc3cc2cc(c3O[C@@H]2O[C@H](CO)[C@@H](O)[C@H](O)[C@H]2O[C@H]2C[C@](C)(N)[C@H](O)[C@H](C)O2)Oc2ccc(cc2Cl)[C@H]1O [Vancomycin, reference compound] | – | 22/62 (35.5%) | – | 35.5
